# Test results from the NIST ThermoML archive (doi:10.1021/je2007549).
# ± gives the expanded uncertainty stated by the source.
# Test: xn = mol fraction of the nth substance listed
# Conditions: 101 kPa, Liquid; for electrical conductivity: Direct current cell with electrodes; for viscosity: Falling or rolling sphere viscometry; for mass density: Vibrating tube method
structure (smiles),measurement,setting,value
CC(C)C[C@H](N)C(=O)[O-].CCCC[P+](CCCC)(CCCC)CCCN [(3-aminopropyl)tributylphosphonium L-leucinate] + O,electrical conductivity,"298.15 K, x2 = 0",0.008 ± 0.00016 S/m
same,electrical conductivity,"298.15 K, x2 = 0.25",0.0114 ± 0.00023 S/m
same,electrical conductivity,"298.15 K, x2 = 0.5",0.0173 ± 0.00035 S/m
same,electrical conductivity,"298.15 K, x2 = 0.75",0.0395 ± 0.00079 S/m
same,viscosity,"298.15 K, x2 = 0",1227.9 ± 140 mPa·s
same,viscosity,"298.15 K, x2 = 0.25",920.24 ± 93 mPa·s
same,viscosity,"298.15 K, x2 = 0.5",599.52 ± 53 mPa·s
same,viscosity,"298.15 K, x2 = 0.75",244.81 ± 16 mPa·s
same,mass density,"298.15 K, x2 = 0",971.86 ± 5.1 kg/m3
same,mass density,"298.15 K, x2 = 0.25",973.97 ± 3.2 kg/m3
same,mass density,"298.15 K, x2 = 0.5",978.04 ± 1.8 kg/m3
same,mass density,"298.15 K, x2 = 0.75",987.11 ± 0.82 kg/m3
same,electrical conductivity,"303.15 K, x2 = 0",0.0108 ± 0.00022 S/m
same,electrical conductivity,"303.15 K, x2 = 0.25",0.0154 ± 0.00031 S/m
same,electrical conductivity,"303.15 K, x2 = 0.5",0.0232 ± 0.00046 S/m
same,electrical conductivity,"303.15 K, x2 = 0.75",0.0515 ± 0.001 S/m
same,viscosity,"303.15 K, x2 = 0",855.26 ± 85 mPa·s
same,viscosity,"303.15 K, x2 = 0.25",629.98 ± 57 mPa·s
same,viscosity,"303.15 K, x2 = 0.5",407.91 ± 32 mPa·s
same,viscosity,"303.15 K, x2 = 0.75",174.05 ± 10 mPa·s
same,mass density,"303.15 K, x2 = 0",968.8 ± 5.1 kg/m3
same,mass density,"303.15 K, x2 = 0.25",970.91 ± 3.2 kg/m3
same,mass density,"303.15 K, x2 = 0.5",974.9 ± 1.8 kg/m3
same,mass density,"303.15 K, x2 = 0.75",983.89 ± 0.82 kg/m3
same,electrical conductivity,"313.15 K, x2 = 0",0.0185 ± 0.00037 S/m
same,electrical conductivity,"313.15 K, x2 = 0.25",0.0254 ± 0.00051 S/m
same,electrical conductivity,"313.15 K, x2 = 0.5",0.0362 ± 0.00072 S/m
same,electrical conductivity,"313.15 K, x2 = 0.75",0.0795 ± 0.0016 S/m
same,viscosity,"313.15 K, x2 = 0",417.9 ± 34 mPa·s
same,viscosity,"313.15 K, x2 = 0.25",308.75 ± 23 mPa·s
same,viscosity,"313.15 K, x2 = 0.5",209.07 ± 13 mPa·s
same,viscosity,"313.15 K, x2 = 0.75",94.21 ± 4.5 mPa·s
same,mass density,"313.15 K, x2 = 0",962.68 ± 5 kg/m3
same,mass density,"313.15 K, x2 = 0.25",964.75 ± 3.2 kg/m3
same,mass density,"313.15 K, x2 = 0.5",968.61 ± 1.8 kg/m3
same,mass density,"313.15 K, x2 = 0.75",977.44 ± 0.81 kg/m3
same,electrical conductivity,"323.15 K, x2 = 0",0.0291 ± 0.00058 S/m
same,electrical conductivity,"323.15 K, x2 = 0.25",0.0379 ± 0.00076 S/m
same,electrical conductivity,"323.15 K, x2 = 0.5",0.0515 ± 0.001 S/m
same,electrical conductivity,"323.15 K, x2 = 0.75",0.116 ± 0.0023 S/m
same,viscosity,"323.15 K, x2 = 0",224.29 ± 15 mPa·s
same,viscosity,"323.15 K, x2 = 0.25",169.8 ± 10 mPa·s
same,viscosity,"323.15 K, x2 = 0.5",116.62 ± 6 mPa·s
same,viscosity,"323.15 K, x2 = 0.75",55.71 ± 2.4 mPa·s
same,mass density,"323.15 K, x2 = 0",956.54 ± 5 kg/m3
same,mass density,"323.15 K, x2 = 0.25",958.56 ± 3.1 kg/m3
same,mass density,"323.15 K, x2 = 0.5",962.52 ± 1.8 kg/m3
same,mass density,"323.15 K, x2 = 0.75",970.88 ± 0.8 kg/m3
same,electrical conductivity,"333.15 K, x2 = 0",0.0414 ± 0.00083 S/m
same,electrical conductivity,"333.15 K, x2 = 0.25",0.0542 ± 0.0011 S/m
same,electrical conductivity,"333.15 K, x2 = 0.5",0.0735 ± 0.0015 S/m
same,electrical conductivity,"333.15 K, x2 = 0.75",0.161 ± 0.0032 S/m
same,viscosity,"333.15 K, x2 = 0",130.46 ± 7.4 mPa·s
same,viscosity,"333.15 K, x2 = 0.25",101.73 ± 5.2 mPa·s
same,viscosity,"333.15 K, x2 = 0.5",72.42 ± 3.3 mPa·s
same,viscosity,"333.15 K, x2 = 0.75",35.35 ± 1.5 mPa·s
same,mass density,"333.15 K, x2 = 0",950.54 ± 4.9 kg/m3
same,mass density,"333.15 K, x2 = 0.25",952.54 ± 3.1 kg/m3
same,mass density,"333.15 K, x2 = 0.5",956.26 ± 1.7 kg/m3
same,mass density,"333.15 K, x2 = 0.75",964.27 ± 0.8 kg/m3
same,electrical conductivity,"343.15 K, x2 = 0",0.0605 ± 0.0012 S/m
same,electrical conductivity,"343.15 K, x2 = 0.25",0.0761 ± 0.0015 S/m
same,electrical conductivity,"343.15 K, x2 = 0.5",0.104 ± 0.0021 S/m
same,electrical conductivity,"343.15 K, x2 = 0.75",0.214 ± 0.0043 S/m
same,viscosity,"343.15 K, x2 = 0",81.01 ± 4.1 mPa·s
same,viscosity,"343.15 K, x2 = 0.25",65.08 ± 3.1 mPa·s
same,viscosity,"343.15 K, x2 = 0.5",47.47 ± 2.1 mPa·s
same,viscosity,"343.15 K, x2 = 0.75",23.97 ± 1 mPa·s
same,mass density,"343.15 K, x2 = 0",944.58 ± 4.8 kg/m3
same,mass density,"343.15 K, x2 = 0.25",946.54 ± 3.1 kg/m3
same,mass density,"343.15 K, x2 = 0.5",949.99 ± 1.7 kg/m3
same,mass density,"343.15 K, x2 = 0.75",957.61 ± 0.79 kg/m3
CCCC[P+](CCCC)(CCCC)CCCN.C[C@H](N)C(=O)[O-] [(3-aminopropyl)tributylphosphonium L-alaninate] + O,electrical conductivity,"298.15 K, x2 = 0",0.0141 ± 0.00028 S/m
same,electrical conductivity,"298.15 K, x2 = 0.25",0.0244 ± 0.00049 S/m
same,electrical conductivity,"298.15 K, x2 = 0.5",0.0337 ± 0.00067 S/m
same,electrical conductivity,"298.15 K, x2 = 0.75",0.0647 ± 0.0013 S/m
same,viscosity,"298.15 K, x2 = 0",804.88 ± 79 mPa·s
same,viscosity,"298.15 K, x2 = 0.25",597.85 ± 53 mPa·s
same,viscosity,"298.15 K, x2 = 0.5",429.73 ± 34 mPa·s
same,viscosity,"298.15 K, x2 = 0.75",208.66 ± 13 mPa·s
same,mass density,"298.15 K, x2 = 0",986.75 ± 5.3 kg/m3
same,mass density,"298.15 K, x2 = 0.25",988.47 ± 3.3 kg/m3
same,mass density,"298.15 K, x2 = 0.5",991.4 ± 1.9 kg/m3
same,mass density,"298.15 K, x2 = 0.75",999.98 ± 0.84 kg/m3
same,electrical conductivity,"303.15 K, x2 = 0",0.0209 ± 0.00042 S/m
same,electrical conductivity,"303.15 K, x2 = 0.25",0.032 ± 0.00064 S/m
same,electrical conductivity,"303.15 K, x2 = 0.5",0.0439 ± 0.00088 S/m
same,electrical conductivity,"303.15 K, x2 = 0.75",0.0859 ± 0.0017 S/m
same,viscosity,"303.15 K, x2 = 0",561.4 ± 50 mPa·s
same,viscosity,"303.15 K, x2 = 0.25",417.93 ± 33 mPa·s
same,viscosity,"303.15 K, x2 = 0.5",304.2 ± 22 mPa·s
same,viscosity,"303.15 K, x2 = 0.75",150.37 ± 8.2 mPa·s
same,mass density,"303.15 K, x2 = 0",983.72 ± 5.2 kg/m3
same,mass density,"303.15 K, x2 = 0.25",985.39 ± 3.3 kg/m3
same,mass density,"303.15 K, x2 = 0.5",988.27 ± 1.8 kg/m3
same,mass density,"303.15 K, x2 = 0.75",996.76 ± 0.83 kg/m3
same,electrical conductivity,"313.15 K, x2 = 0",0.032 ± 0.00064 S/m
same,electrical conductivity,"313.15 K, x2 = 0.25",0.0487 ± 0.00097 S/m
same,electrical conductivity,"313.15 K, x2 = 0.5",0.0703 ± 0.0014 S/m
same,electrical conductivity,"313.15 K, x2 = 0.75",0.134 ± 0.0027 S/m
same,viscosity,"313.15 K, x2 = 0",291.07 ± 21 mPa·s
same,viscosity,"313.15 K, x2 = 0.25",222.26 ± 15 mPa·s
same,viscosity,"313.15 K, x2 = 0.5",163.31 ± 9.4 mPa·s
same,viscosity,"313.15 K, x2 = 0.75",83.45 ± 3.8 mPa·s
same,mass density,"313.15 K, x2 = 0",977.65 ± 5.2 kg/m3
same,mass density,"313.15 K, x2 = 0.25",979.18 ± 3.3 kg/m3
same,mass density,"313.15 K, x2 = 0.5",982.01 ± 1.8 kg/m3
same,mass density,"313.15 K, x2 = 0.75",990.22 ± 0.83 kg/m3
same,electrical conductivity,"323.15 K, x2 = 0",0.0464 ± 0.00093 S/m
same,electrical conductivity,"323.15 K, x2 = 0.25",0.0727 ± 0.0015 S/m
same,electrical conductivity,"323.15 K, x2 = 0.5",0.105 ± 0.0021 S/m
same,electrical conductivity,"323.15 K, x2 = 0.75",0.195 ± 0.0039 S/m
same,viscosity,"323.15 K, x2 = 0",164.61 ± 10 mPa·s
same,viscosity,"323.15 K, x2 = 0.25",127.07 ± 6.9 mPa·s
same,viscosity,"323.15 K, x2 = 0.5",95.01 ± 4.6 mPa·s
same,viscosity,"323.15 K, x2 = 0.75",50.38 ± 2.1 mPa·s
same,mass density,"323.15 K, x2 = 0",971.62 ± 5.1 kg/m3
same,mass density,"323.15 K, x2 = 0.25",973.04 ± 3.2 kg/m3
same,mass density,"323.15 K, x2 = 0.5",975.81 ± 1.8 kg/m3
same,mass density,"323.15 K, x2 = 0.75",983.57 ± 0.82 kg/m3
same,electrical conductivity,"333.15 K, x2 = 0",0.0649 ± 0.0013 S/m
same,electrical conductivity,"333.15 K, x2 = 0.25",0.101 ± 0.002 S/m
same,electrical conductivity,"333.15 K, x2 = 0.5",0.147 ± 0.0029 S/m
same,electrical conductivity,"333.15 K, x2 = 0.75",0.265 ± 0.0053 S/m
same,viscosity,"333.15 K, x2 = 0",106.7 ± 5.7 mPa·s
same,viscosity,"333.15 K, x2 = 0.25",78.92 ± 3.8 mPa·s
same,viscosity,"333.15 K, x2 = 0.5",59.3 ± 2.6 mPa·s
same,viscosity,"333.15 K, x2 = 0.75",32.59 ± 1.4 mPa·s
same,mass density,"333.15 K, x2 = 0",965.71 ± 5 kg/m3
same,mass density,"333.15 K, x2 = 0.25",966.97 ± 3.2 kg/m3
same,mass density,"333.15 K, x2 = 0.5",969.57 ± 1.8 kg/m3
same,mass density,"333.15 K, x2 = 0.75",976.99 ± 0.81 kg/m3
same,electrical conductivity,"343.15 K, x2 = 0",0.0884 ± 0.0018 S/m
same,electrical conductivity,"343.15 K, x2 = 0.25",0.142 ± 0.0028 S/m
same,electrical conductivity,"343.15 K, x2 = 0.5",0.193 ± 0.0039 S/m
same,electrical conductivity,"343.15 K, x2 = 0.75",0.334 ± 0.0067 S/m
same,viscosity,"343.15 K, x2 = 0",65.96 ± 3.3 mPa·s
same,viscosity,"343.15 K, x2 = 0.25",53.07 ± 2.4 mPa·s
same,viscosity,"343.15 K, x2 = 0.5",39.29 ± 1.8 mPa·s
same,viscosity,"343.15 K, x2 = 0.75",22.27 ± 0.95 mPa·s
same,mass density,"343.15 K, x2 = 0",959.97 ± 5 kg/m3
same,mass density,"343.15 K, x2 = 0.25",960.89 ± 3.1 kg/m3
same,mass density,"343.15 K, x2 = 0.5",963.3 ± 1.8 kg/m3
same,mass density,"343.15 K, x2 = 0.75",970.15 ± 0.8 kg/m3
